± gives the expanded uncertainty stated by the source.
Test: mn = molality of the nth substance listed, in mol/kg
Conditions: Liquid, Vibrating tube method

[Br-].[Li+] [lithium bromide] + CCO
Conditions	mass density [kg/m3]
313.16 K, 69943 kPa, m1 = 2.272	954.83 ± 1.9
313.16 K, 70035 kPa, m1 = 0.2335	838.62 ± 1.8
313.16 K, 80024 kPa, m1 = 2.833	989.48 ± 2
313.16 K, 99649 kPa, m1 = 1.462	925.34 ± 1.9
313.17 K, 1995 kPa, m1 = 3.368	968.15 ± 1.9
313.17 K, 5344 kPa, m1 = 3.368	970.84 ± 1.9
313.17 K, 10286 kPa, m1 = 3.368	974.66 ± 1.9
313.17 K, 19807 kPa, m1 = 3.368	981.61 ± 2
313.17 K, 29957 kPa, m1 = 3.368	988.47 ± 2
313.17 K, 40021 kPa, m1 = 2.833	967.43 ± 1.9
313.17 K, 40159 kPa, m1 = 3.368	994.86 ± 2
313.17 K, 49914 kPa, m1 = 3.368	1000.58 ± 2
313.17 K, 80160 kPa, m1 = 2.272	960.11 ± 1.9
313.17 K, 89963 kPa, m1 = 2.272	965.03 ± 1.9
313.17 K, 99603 kPa, m1 = 3.368	1026.1 ± 2.1
313.18 K, 59836 kPa, m1 = 3.368	1006.06 ± 2
313.18 K, 69925 kPa, m1 = 3.368	1011.36 ± 2
313.18 K, 89986 kPa, m1 = 3.368	1021.4 ± 2.1
313.18 K, 100029 kPa, m1 = 2.272	969.91 ± 2
313.19 K, 1459 kPa, m1 = 0.5972	812.65 ± 1.6
313.2 K, 79843 kPa, m1 = 3.368	1016.39 ± 2
323.13 K, 5012 kPa, m1 = 0.2335	784.23 ± 1.6
323.13 K, 79954 kPa, m1 = 0.5972	859.95 ± 1.8
323.14 K, 10001 kPa, m1 = 0.2335	788.63 ± 1.6
323.14 K, 19956 kPa, m1 = 2.833	946.78 ± 1.9
323.14 K, 29926 kPa, m1 = 3.368	981.06 ± 2
323.14 K, 39945 kPa, m1 = 2.272	930.75 ± 1.9
323.14 K, 39954 kPa, m1 = 1.462	885.66 ± 1.8
323.14 K, 49912 kPa, m1 = 0.2335	819.58 ± 1.7
323.14 K, 69926 kPa, m1 = 2.833	977.81 ± 2
323.14 K, 70002 kPa, m1 = 1.462	904.07 ± 1.8
323.14 K, 70002 kPa, m1 = 3.368	1004.85 ± 2
323.15 K, 1023 kPa, m1 = 2.833	931.78 ± 1.9
323.15 K, 1026 kPa, m1 = 0.5972	803.74 ± 1.6
323.15 K, 1032 kPa, m1 = 2.272	901.6 ± 1.8
323.15 K, 1032 kPa, m1 = 3.368	959.14 ± 1.9
323.15 K, 1035 kPa, m1 = 1.462	855.48 ± 1.7
323.15 K, 1203 kPa, m1 = 0.9499	825.48 ± 1.7
323.15 K, 2012 kPa, m1 = 0.2335	781.53 ± 1.6
323.15 K, 5014 kPa, m1 = 3.368	962.48 ± 1.9
323.15 K, 5021 kPa, m1 = 0.5972	807.24 ± 1.6
323.15 K, 5021 kPa, m1 = 2.833	935.15 ± 1.9
323.15 K, 5024 kPa, m1 = 2.272	905.02 ± 1.8
323.15 K, 5106 kPa, m1 = 1.462	859.08 ± 1.7
323.15 K, 5451 kPa, m1 = 0.9499	829.11 ± 1.7
323.15 K, 9995 kPa, m1 = 2.833	939.18 ± 1.9
323.15 K, 10002 kPa, m1 = 2.272	909.13 ± 1.8
323.15 K, 10023 kPa, m1 = 0.5972	811.53 ± 1.6
323.15 K, 10026 kPa, m1 = 0.9499	832.95 ± 1.7
323.15 K, 10065 kPa, m1 = 1.462	863.3 ± 1.7
323.15 K, 19957 kPa, m1 = 0.9499	840.97 ± 1.7
323.15 K, 19957 kPa, m1 = 3.368	974.07 ± 1.9
323.15 K, 20023 kPa, m1 = 0.2335	797.12 ± 1.6
323.15 K, 29784 kPa, m1 = 2.833	953.72 ± 1.9
323.15 K, 29928 kPa, m1 = 0.9499	848.61 ± 1.7
323.15 K, 29975 kPa, m1 = 1.462	878.73 ± 1.8
323.15 K, 29978 kPa, m1 = 0.5972	827.54 ± 1.7
323.15 K, 29986 kPa, m1 = 2.272	924.09 ± 1.9
323.15 K, 39784 kPa, m1 = 0.9499	855.75 ± 1.7
323.15 K, 39926 kPa, m1 = 0.2335	812.55 ± 1.7
323.15 K, 39984 kPa, m1 = 3.368	987.61 ± 2
323.15 K, 49921 kPa, m1 = 2.272	937 ± 1.9
323.15 K, 49926 kPa, m1 = 1.462	892.13 ± 1.8
323.15 K, 49928 kPa, m1 = 0.9499	862.68 ± 1.8
323.15 K, 50001 kPa, m1 = 0.5972	841.84 ± 1.7
323.15 K, 50021 kPa, m1 = 2.833	966.58 ± 1.9
323.15 K, 59924 kPa, m1 = 3.368	999.37 ± 2
323.15 K, 59926 kPa, m1 = 0.2335	825.76 ± 1.7
323.15 K, 59957 kPa, m1 = 1.462	898.25 ± 1.8
323.15 K, 59986 kPa, m1 = 2.833	972.34 ± 1.9
323.15 K, 60024 kPa, m1 = 0.9499	869.15 ± 1.8
323.15 K, 69794 kPa, m1 = 0.9499	875 ± 1.8
323.15 K, 69794 kPa, m1 = 2.272	948.43 ± 1.9
323.15 K, 69923 kPa, m1 = 0.5972	854.32 ± 1.8
323.15 K, 79923 kPa, m1 = 1.462	909.56 ± 1.9
323.15 K, 79924 kPa, m1 = 0.2335	837.48 ± 1.8
323.15 K, 79926 kPa, m1 = 3.368	1010.05 ± 2
323.15 K, 79935 kPa, m1 = 0.9499	880.66 ± 1.8
323.15 K, 79953 kPa, m1 = 2.272	953.9 ± 1.9
323.15 K, 79956 kPa, m1 = 2.833	983.13 ± 2
323.15 K, 89924 kPa, m1 = 3.368	1015.15 ± 2
323.15 K, 89925 kPa, m1 = 0.9499	885.81 ± 1.8
323.15 K, 89926 kPa, m1 = 2.272	959.13 ± 1.9
323.15 K, 89956 kPa, m1 = 0.2335	843.04 ± 1.8
323.15 K, 89958 kPa, m1 = 2.833	988.29 ± 2
323.15 K, 90021 kPa, m1 = 0.5972	865.14 ± 1.8
323.15 K, 99678 kPa, m1 = 2.833	993.25 ± 2
323.15 K, 99745 kPa, m1 = 0.5972	869.74 ± 1.9
323.15 K, 99956 kPa, m1 = 3.368	1020.21 ± 2.1
323.15 K, 99957 kPa, m1 = 1.462	920.17 ± 1.9
323.15 K, 99965 kPa, m1 = 0.2335	847.91 ± 1.8
323.15 K, 99969 kPa, m1 = 0.9499	890.57 ± 1.9
323.15 K, 99985 kPa, m1 = 2.272	964.32 ± 2
323.16 K, 10058 kPa, m1 = 3.368	966.55 ± 1.9
323.16 K, 19945 kPa, m1 = 0.5972	819.71 ± 1.7
323.16 K, 19956 kPa, m1 = 2.272	916.87 ± 1.8
323.16 K, 20003 kPa, m1 = 1.462	871.29 ± 1.8
323.16 K, 29921 kPa, m1 = 0.2335	805.03 ± 1.6
323.16 K, 39928 kPa, m1 = 2.833	960.39 ± 1.9
323.16 K, 49957 kPa, m1 = 3.368	993.67 ± 2
323.16 K, 60002 kPa, m1 = 2.272	942.94 ± 1.9
323.16 K, 70004 kPa, m1 = 0.2335	831.8 ± 1.8
323.16 K, 89956 kPa, m1 = 1.462	914.93 ± 1.9
323.17 K, 39926 kPa, m1 = 0.5972	834.87 ± 1.7
323.18 K, 59974 kPa, m1 = 0.5972	848.31 ± 1.8

From the NIST ThermoML archive (doi:10.1021/je1003065)
